Experimental data reported in US20150148256A1, “BIOLUMINESCENCE IMAGING-BASED SCREENING ASSAY AND INHIBITORS OF ABCG2” (THE JOHNS HOPKINS UNIVERSITY, priority 2008, published 2015).
Structures can show the parent of a compound that is named as a salt. Where two headings read alike, the source gives them in different places.

Experiments:
[1] = test system: ABCG2-overexpressing NCI-H460/MX20 cells
[2] = target: T1, ABCG2 (Homo sapiens, UniProt Q9UNQ0); assay: Bioluminescence imaging (BLI) assay in HEK293/ABCG2/fLuc cells
T1 sequence (Q9UNQ0 1-655): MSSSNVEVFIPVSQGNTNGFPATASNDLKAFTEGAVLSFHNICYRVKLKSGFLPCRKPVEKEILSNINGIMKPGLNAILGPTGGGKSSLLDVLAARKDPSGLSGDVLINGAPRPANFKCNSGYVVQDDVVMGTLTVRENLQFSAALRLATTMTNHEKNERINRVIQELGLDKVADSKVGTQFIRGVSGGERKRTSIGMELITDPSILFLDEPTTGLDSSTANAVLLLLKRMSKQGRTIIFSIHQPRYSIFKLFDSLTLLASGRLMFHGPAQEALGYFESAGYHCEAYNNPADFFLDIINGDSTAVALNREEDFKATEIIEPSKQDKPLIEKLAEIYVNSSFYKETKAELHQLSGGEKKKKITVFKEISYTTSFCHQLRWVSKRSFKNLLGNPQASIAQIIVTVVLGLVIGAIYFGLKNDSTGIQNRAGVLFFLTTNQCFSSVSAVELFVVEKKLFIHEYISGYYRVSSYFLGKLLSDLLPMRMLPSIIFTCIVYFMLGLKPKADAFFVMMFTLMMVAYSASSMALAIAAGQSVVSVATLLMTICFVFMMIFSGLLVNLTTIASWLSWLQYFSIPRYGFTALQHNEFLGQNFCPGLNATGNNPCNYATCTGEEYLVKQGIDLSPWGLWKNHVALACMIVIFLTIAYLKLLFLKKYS
In short: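 Light output from HEK293/ABCG2/fLuc cells plated at 4×10^4 per well, treated with compounds, imaged every 5 min for ~1 h. Values are signal-to-background ratios versus solvent control at 40 min, indicating ABCG2 inhibition. Dose range 0.001 μM-100 μM with 50 μg/mL D-luciferin for selected compounds.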

[3] = target: T2, MRP1 (Multiple Drug Resistance Protein 1) (Homo sapiens, UniProt P33527); assay: Colchicine resensitization assay in MDCKII cells overexpressing MRP1; type: cell-based; details: for MRP1 inhibition: even at relatively high concentration (30 μM)
T2 construct: expressed in transfected cells; host or cells: MDCKII
T2 sequence (P33527 whole entry): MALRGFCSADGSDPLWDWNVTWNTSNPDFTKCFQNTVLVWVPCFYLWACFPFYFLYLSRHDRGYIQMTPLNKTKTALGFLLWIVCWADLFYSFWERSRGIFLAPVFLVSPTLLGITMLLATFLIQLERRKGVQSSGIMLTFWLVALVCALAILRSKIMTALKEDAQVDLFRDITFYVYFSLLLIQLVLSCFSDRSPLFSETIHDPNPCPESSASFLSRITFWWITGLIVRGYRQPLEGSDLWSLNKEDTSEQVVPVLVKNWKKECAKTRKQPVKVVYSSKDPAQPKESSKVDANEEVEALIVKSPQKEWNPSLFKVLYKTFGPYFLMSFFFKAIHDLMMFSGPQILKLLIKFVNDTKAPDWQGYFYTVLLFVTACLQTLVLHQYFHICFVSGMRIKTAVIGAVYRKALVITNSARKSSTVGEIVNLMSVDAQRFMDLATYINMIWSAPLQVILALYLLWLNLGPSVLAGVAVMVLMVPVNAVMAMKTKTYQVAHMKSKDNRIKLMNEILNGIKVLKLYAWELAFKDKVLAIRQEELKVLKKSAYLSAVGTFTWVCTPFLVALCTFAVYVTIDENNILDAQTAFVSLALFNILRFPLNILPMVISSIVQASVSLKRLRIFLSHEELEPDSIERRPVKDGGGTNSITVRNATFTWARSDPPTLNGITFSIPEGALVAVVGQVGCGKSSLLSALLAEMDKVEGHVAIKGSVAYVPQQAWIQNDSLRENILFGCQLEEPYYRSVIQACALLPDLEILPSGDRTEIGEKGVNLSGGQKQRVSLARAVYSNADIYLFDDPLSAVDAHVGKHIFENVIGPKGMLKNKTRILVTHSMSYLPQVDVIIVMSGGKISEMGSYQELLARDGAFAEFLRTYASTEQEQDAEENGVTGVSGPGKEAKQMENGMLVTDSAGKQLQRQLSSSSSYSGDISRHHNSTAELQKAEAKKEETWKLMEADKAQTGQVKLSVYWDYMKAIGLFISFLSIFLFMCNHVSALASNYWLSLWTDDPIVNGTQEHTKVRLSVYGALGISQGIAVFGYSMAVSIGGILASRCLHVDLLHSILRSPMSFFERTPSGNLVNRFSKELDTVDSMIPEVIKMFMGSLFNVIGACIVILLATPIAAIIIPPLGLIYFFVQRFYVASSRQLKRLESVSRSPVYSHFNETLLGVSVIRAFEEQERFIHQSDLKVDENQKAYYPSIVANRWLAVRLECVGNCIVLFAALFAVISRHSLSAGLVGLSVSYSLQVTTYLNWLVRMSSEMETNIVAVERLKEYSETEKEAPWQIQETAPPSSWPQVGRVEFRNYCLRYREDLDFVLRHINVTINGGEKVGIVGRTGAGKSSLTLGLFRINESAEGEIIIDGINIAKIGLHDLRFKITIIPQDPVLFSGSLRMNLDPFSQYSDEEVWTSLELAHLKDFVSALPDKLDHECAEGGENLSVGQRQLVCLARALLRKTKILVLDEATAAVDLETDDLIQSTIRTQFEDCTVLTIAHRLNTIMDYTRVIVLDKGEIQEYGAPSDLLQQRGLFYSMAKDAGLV
Protocol: The ABC transporter-inhibiting ability of the potential inhibitors identified were further tested by evaluating their ability to resensitize ABCG2-overexpressing NCI-H460/MX20 cells to MTX, or MDCKII cells overexpressing Pgp or MRP1, to Col. Cells were plated in 96-well plates at 1×10^4 per well and allowed to attach. […] Colchicine was added at 1 μM for MDCKII/Pgp cells and 0.3 μM for MDCKII/MRP1 cells. […] In brief, 1 mg/ml XTT (Polysciences, Warrington, Pa.) was mixed with 0.025 mM PMS (Sigma), and 50 μl of the mixture was added to each well and incubated for 4 hours at 37° C. After the plates were mixed on a plate shaker, absorbance at 450 nm was measured. All results were normalized to a percentage of absorbance obtained in controls.
MDCKII cells overexpressing Pgp or MRP1 were incubated for two days in medium containing 1 μM (for Pgp) or 0.3 μM (for MRP1) Col and increasing concentrations of each ABCG2 inhibitor.

[4] = test system: NCI-H460 parent line; assay: MTX survival of parent NCI-H460 cells (XTT); type: cell-based, human; details: three days
[5] = target: T1, ABCG2; set-up: expressed in transfected cells; host or cells: HEK293; details: read-out: IC50, ability to inhibit ATPase, cited from earlier work
[6] = target: T1, ABCG2; set-up: expressed in transfected cells; host or cells: HEK293; details: cited from earlier work
[7] = target: T1, ABCG2; set-up: expressed in transfected cells; host or cells: HEK293; details: reference (23); read-out: IC50, pheophorbide A fluorescent dye uptake assay; cited from earlier work
[8] = target: T1, ABCG2; assay: BODIPY-prazosin uptake assay (flow cytometry) in HEK293/ABCG2 cells; details: compound 20 μM; for BP (BODIPY-prazosin dye uptake assay): 1 h; for BODIPY-prazosin assay result: flow cytometry
[9] = target: T1, ABCG2; details: 1 h, 20 μM
[10] = compound 1 μM with 15 μM MTX, two days
[11] = compound 20 μM, H460/MX20 cells
[12] = Table 2, HEK293/ABCG2/fLuc cells, compound approximately 17 μM, ~50 μg/mL D-luciferin, 40 min time point
[13] = Table 4, approximately 17 μM, 40 min time point

For Cc1cc2nc3c(=O)[nH]c(=O)nc-3n(C[C@H](O)[C@H](O)[C@H](O)CO)c2cc1C [riboflavin], the “MTX (mitoxantrone resensitization assay)” value ([1]; H460/MX20 cells with MTX) was “Y”, the “Fold (BLI enhancement), known compounds” value ([2]; human, 40 min, 17 μM) was 5.4 fold and the “Fold (BLI enhancement, S/B ratio over control)” value ([2]; human, 40 min, 17 μM) was 5.4 fold.

With O=C(OCC(O)CO)c1ccccc1Nc1ccnc2cc(Cl)ccc12 (stereo not shown) [glafenine] the “MTX (mitoxantrone resensitization assay)” value [1] was “Y”, the “concentration that effectively resensitizes H460/MX20 cells to MTX” value [1] was ≤ 0.001 µM and the “relative potency in dose-dependent MTX resensitization” value [1] was “more potent ABCG2 inhibitor than FTC, doxazosin mesylate, clebopride maleate, and flavoxate hydrochloride”. The “survival of H460/MX20 cells” value [1] was 13%, the IC50 [2] was 3200 nM and the “BLI signal enhancement” value ([2]; human, 40 min, 17 μM) was ~20 fold. The “Fold (BLI enhancement), previously unknown compounds” value (shortened to “Fold … previously unknown compounds”) ([2]; human, 40 min, 17 μM) was 20.6 fold, the “Fold (BLI enhancement, S/B ratio over control)” value ([2]; human, 40 min, 17 μM) was 20.6 fold and the “concentration from which MDCKII/MRP1 cells are resensitized to Col” value ([3]; 0.3 μM Col, two days) was 10 µM.

In the case of CC(C)C(=O)Nc1ccc([N+](=O)[O-])c(C(F)(F)F)c1 [flutamide], the “MTX (mitoxantrone resensitization assay)” value ([1]; H460/MX20 cells with MTX) is reported as “Y”, the “Fold … previously unknown compounds” value ([2]; human, 40 min, 17 μM) is reported as 6.1 fold and the “Fold (BLI enhancement, S/B ratio over control)” value ([2]; human, 40 min, 17 μM) is reported as 6.1 fold.

In the case of O=C1c2c(O)ccc(O)c2C(=O)c2c(NCCNCCO)ccc(NCCNCCO)c21 [MTX, mitoxantrone], the “survival of H460/MX20 cells” value ([1]; 15 μM MTX alone, three days) is reported as 80%, the “survival of H460/MX20 cells” value ([1]; 30 μM MTX alone, three days) is reported as ~40% and the “survival of parent cells” value ([4]; 15 μM MTX alone) is reported as < 20%. For the same compound, the “survival of parent cells” value ([4]; 30 μM MTX alone) was ~9%.

For CC(C)(C(=O)c1cccnc1)c1cccnc1 [metyrapone, 2-methyl-1,2-dipyridin-3-yl-propan-1-one], the “MTX (mitoxantrone resensitization assay)” value ([1]; H460/MX20 cells with MTX) was “Y”, the “Fold … previously unknown compounds” value ([2]; human, 40 min, 17 μM) was 6.3 fold and the “Fold (BLI enhancement, S/B ratio over control)” value ([2]; human, 40 min, 17 μM) was 6.3 fold.

In the case of COc1ccc2c3c([nH]c2c1)[C@H](C=C(C)C)N1C(=O)[C@@H]2CCCN2C(=O)[C@@H]1C3 [FTC, Fumitremorgin C], the IC50 ([5]; Ozvegy et al. (21)) is listed as 1300 nM, the IC50 ([5]; Ozvegy et al. (22)) is listed as 400 nM and the IC50 ([5]; Robey et al. (13)) is listed as 1000 nM. For the same compound, the “resensitization of H460/MX20 cells to MTX” value (“resensitization … to MTX” for short) ([1]; FTC positive control (10 μM), MTX 15 or 30 μM, three days) was “restored the sensitivity of H460/MX20 cells to MTX and significantly reduced their survival rate”, the IC50 ([2]; read-out: IC50 as an ABCG2 inhibitor (BLI), same assay, using the 30 min data) was 6600 nM and the IC50 ([6]; literature, read-out: IC50 values reported in literature) was 300 to 1300 nM. For the same compound, the “concentration at which the plateau of the ABCG2-inhibiting effect is reached” value ([6]; previous reports) was 10 µM and the IC50 [7] was 800 nM.

With C=C(C)[C@H]1Cc2c(ccc3c2O[C@@H]2COc4cc(OC)c(OC)cc4[C@@H]2C3=O)O1 [rotenone] the “MTX (mitoxantrone resensitization assay)” value [1] was “Y”, the “BP (BODIPY-prazosin dye uptake assay)” value [8] was “Y” and the BODIPY-prazosin assay result [8] was “positive”. The “Fold … previously unknown compounds” value ([2]; human) was 6.7 fold and the “Fold (BLI enhancement, S/B ratio over control)” value ([2]; human) was 6.7 fold.

With verteporfin the “MTX (mitoxantrone resensitization assay)” value ([1]; H460/MX20 cells with MTX) was “Y”, the “resensitization … to MTX” value [1, 10] was “showed resensitization of H460/MX20 cells to MTX” and the “cytotoxicity in the MTX resensitization assay” value (“cytotoxicity” for short) [1, 11] was “too cytotoxic to be tested”. For the same compound, the “cytotoxicity” value ([1]; compound 20 μM, H460/MX20 cells, listed as Verteporfin) was “too cytotoxic to validate by MTX assay”, the “BP (BODIPY-prazosin dye uptake assay)” value [8] was “N” and the BODIPY-prazosin assay result [8] was “negative”. For the same compound, the “Fold (BLI enhancement, S/B ratio over control)” value [2, 12] was 11.3 fold and the “Fold … previously unknown compounds” value [2, 13] was 11.3 fold.

For O=C(c1ccc(OCCN2CCCCC2)cc1)c1c(-c2ccc(O)cc2)sc2cc(O)ccc12 [raloxifene hydrochloride], the “MTX (mitoxantrone resensitization assay)” value ([1]; H460/MX20 cells with MTX) was “Y”, the “Fold … previously unknown compounds” value ([2]; human, 40 min, 17 μM) was 5.4 fold and the “Fold (BLI enhancement, S/B ratio over control)” value ([2]; human, 40 min, 17 μM) was 5.4 fold.

With CCN(CC)CCOc1ccc(C(=C(Cl)c2ccccc2)c2ccccc2)cc1 [clomiphene citrate] the “resensitization … to MTX” value [1, 10] was “showed resensitization of H460/MX20 cells to MTX”, the “Fold … previously unknown compounds” value ([2]; human, 40 min, 17 μM) was 6.7 fold and the “Fold (BLI enhancement, S/B ratio over control)” value ([2]; human, 40 min, 17 μM) was 6.7 fold.

For COc1cc(N)c(Cl)cc1C(=O)NC1CCN(Cc2ccccc2)CC1 [clebopride maleate], the “MTX (mitoxantrone resensitization assay)” value ([1]; H460/MX20 cells with MTX) was “Y”, the IC50 [2] was 8200 nM and the “Fold … previously unknown compounds” value ([2]; human, 40 min, 17 μM) was 7.9 fold. For the same compound, the “Fold (BLI enhancement, S/B ratio over control)” value ([2]; human, 40 min, 17 μM) was 7.9 fold and the MRP1 inhibition [3] was “weak”.

With gramicidin the “resensitization … to MTX” value [1, 10] was “showed resensitization of H460/MX20 cells to MTX”, the “cytotoxicity” value [1, 11] was “too cytotoxic to be tested” and the “Fold (BLI enhancement, S/B ratio over control)” value [2, 12] was 6.9 fold. For the same compound, the “Fold … previously unknown compounds” value [2, 13] was 6.9 fold.

In the case of CCN(CC)CCCC(C)Nc1c2ccc(Cl)cc2nc2ccc(OC)cc12 (stereo not shown) [quinacrine], the “cytotoxicity” value [1] is reported as “too cytotoxic to be tested”, the BODIPY-prazosin assay result [9] is reported as “confirmed as an ABCG2 inhibitor” and the “Fold … previously unknown compounds” value ([2]; human, 40 min, 17 μM) is reported as 10.6 fold. For the same compound, the “Fold (BLI enhancement, S/B ratio over control)” value ([2]; human, 40 min, 17 μM) was 10.6 fold.

With CC(=O)c1ccc2c(c1)N(CCCN(C)C)c1ccccc1S2 [acepromazine] the “MTX (mitoxantrone resensitization assay)” value ([1]; H460/MX20 cells with MTX) was “Y”, the “Fold … previously unknown compounds” value ([2]; human, 40 min, 17 μM) was 6.2 fold and the “Fold (BLI enhancement, S/B ratio over control)” value ([2]; human, 40 min, 17 μM) was 6.2 fold.

With Cc1c(-c2ccccc2)oc2c(C(=O)OCCN3CCCCC3)cccc2c1=O [flavoxate hydrochloride] the “MTX (mitoxantrone resensitization assay)” value ([1]; H460/MX20 cells with MTX) was “Y”, the IC50 [2] was 20000 nM and the “Fold … previously unknown compounds” value ([2]; human, 40 min, 17 μM) was 11.2 fold. For the same compound, the “Fold (BLI enhancement, S/B ratio over control)” value ([2]; human, 40 min, 17 μM) was 11.2 fold and the MRP1 inhibition [3] was “weak”.
